From patent US20150119410A1, “BIOMARKERS OF RESPONSE TO NAE INHIBITORS” (MILLENNIUM PHARMACEUTICALS, INC., priority 2011, published 2015)

Experiments:
Assay in all cases: Cell line panel 2 high-content screen
Assay type in all cases: cell-based
COLO320 HSR = conditions: Homo sapiens, COLO-320-HSR; COLO320 HSR (intestine); 72 hours
Protocol: (§1) To support clinical development and identify potential biomarkers of tumor sensitivity or resistance, two large cancer cell line panels (Panel 1, N=653 (McDermott et al. (2007) PNAS 104:19936-19941); Panel 2, N=240 (O'Day et al. (2010) Fourth AACR International Conference on Molecular Diagnostics in Cancer Therapeutic Development)) were treated with MLN4924 and cell viability data (IC50, EC50, and POC—Percentage of Control) were generated.
(§2) Panel 2 (Ricerca Biosciences, Inc., Bothell, Wash.). MLN4924 was added in half-log dilutions for 10 concentrations and treated for 72 hours. High-content cell screening by fluorescence microscopy included image analysis to generate several types of data. Results included EC50 values (after measurement of cell numbers, the EC50 concentration was calculated from the inflection point of a curve of percent of control (POC) against log of MLN4924 concentration), IC50 values (from the POC-log MLN4924 plot, IC50 is the concentration at 50% maximal possible response), apoptosis (measurement of activation of caspase 3 plotted against log of MLN4924 concentration, determined as the concentration for >5 fold induction), and mitotic activity (determined by measuring the fold increase of phospho-histone 3). A comparison of EC50 to IC50 (FIG. 3) allowed assignment of cell lines to sensitive, insensitive or resistant. Final identification of a cell line as sensitive or resistant was based on the EC50 values. The cutoff for sensitivity is a median EC50 of less than the median value of all POC's recorded in the panel (<0.36), borderline sensitivity was associated with median EC50 of 0.36 to 1.67 and insensitive or resistant cell lines were identified by EC50 greater than the 3rd quartile of all POC's in the panel (>1.67).

MDA-MB-468 = conditions: Homo sapiens; MDA-MB-468 (breast); 72 hours
Protocol: as §1, §2

SK-OV-3 = conditions: Homo sapiens; SK-OV-3 (ovary); 72 hours
Protocol: as §1, §2

CAL-27 = conditions: Homo sapiens; CAL-27 (upper aerodigestive tract); 72 hours
Protocol: as §1, §2

SW1417 = conditions: Homo sapiens; SW1417 (intestine); 72 hours
Protocol: as §1, §2

RL95-2 = RL95-2 (endometrium)
Protocol: as §1, §2

BV-173 = BV-173 (haematopoietic, lymphoid_tissue)
Protocol: as §1, §2

BxPC-3 = conditions: Homo sapiens; BxPC-3 (pancreas); 72 hours
Protocol: as §1, §2

YAPC = conditions: Homo sapiens; YAPC (pancreas); 72 hours
Protocol: as §1, §2

SW954 = SW954 (vulva)
Protocol: as §1, §2

T84 = conditions: Homo sapiens; T84 (intestine); 72 hours
Protocol: as §1, §2

SW620 = conditions: Homo sapiens, SW-620; SW620 (intestine); 72 hours
Protocol: as §1, §2

NCl-H520 = NCl-H520 (lung NSCLC); 72 hours
Protocol: as §1, §2

SW837 = conditions: Homo sapiens; SW837 (intestine); 72 hours
Protocol: as §1, §2

MIA-PaCa-2 = conditions: Homo sapiens; MIA-PaCa-2 (pancreas); 72 hours
Protocol: as §1, §2

FADU = conditions: Homo sapiens; FADU (upper aerodigestive tract); 72 hours
Protocol: as §1, §2

HCT-15 = conditions: Homo sapiens; HCT-15 (intestine); 72 hours
Protocol: as §1, §2

SKUT1 = conditions: Homo sapiens, SK-UT-1; SKUT1 (smooth muscle); 72 hours
Protocol: as §1, §2

ACHN = conditions: Homo sapiens; ACHN (kidney); 72 hours
Protocol: as §1, §2

HT29 = conditions: Homo sapiens; HT29 / HT-29 (intestine); 72 hours
Protocol: as §1, §2

COLO-205 = conditions: Homo sapiens; COLO-205 (intestine); 72 hours
Protocol: as §1, §2

CAL-62 = conditions: Homo sapiens; CAL-62 (thyroid); 72 hours
Protocol: as §1, §2

CAPAN-1 = conditions: Homo sapiens; CAPAN-1 (pancreas); 72 hours
Protocol: as §1, §2

647-V = conditions: Homo sapiens; 647-V (urinary_tract); 72 hours
Protocol: as §1, §2

THP-1 = THP-1 (haematopoietic, lymphoid_tissue)
Protocol: as §1, §2

LS1034 = conditions: Homo sapiens, LS-1034; LS1034 (intestine); 72 hours
Protocol: as §1, §2

SW 1116 = conditions: Homo sapiens; SW 1116 (intestine); 72 hours
Protocol: as §1, §2

NClH747 = NClH747 (intestine); 72 hours
Protocol: as §1, §2

Question: With `NS(=O)(=O)OC[C@@H]1C[C@@H](n2ccc3c(N[C@H]4CCc5ccccc54)ncnc32)C[C@@H]1O` [MLN4924, ((1S,2S,4R)-4-{4-[(1S)-2,3-dihydro-1H-inden-1-ylamino]-7H-pyrrolo[2,3-d]pyrimidin-7-yl}-2-hydroxycyclopentyl)methyl sulphamate] as the compound, how does the EC50 (COLO320 HSR) read?
Answer: 1780 nM

Question: And the EC50 (MDA-MB-468)?
Answer: 26.7 nM

Question: What about the EC50 (SK-OV-3) of the same compound?
Answer: 10000 nM

Question: What about the EC50 (CAL-27) of the same compound?
Answer: 139 nM

Question: And the EC50 (SW1417)?
Answer: 9030 nM

Question: What about the EC50 (RL95-2; Homo sapiens, 72 hours) of the same compound?
Answer: 94 nM

Question: And the Phenotype (RL95-2; NF2 mutant)?
Answer: sensitive (The cutoff for sensitivity is a median EC50 of less than the median value of all POC's recorded in the panel (<0.36))

Question: What about the Phenotype (BV-173; KDM6A mutant) of the same compound?
Answer: sensitive (The cutoff for sensitivity is a median EC50 of less than the median value of all POC's recorded in the panel (<0.36))

Question: And the EC50 (BV-173; Homo sapiens, 72 hours)?
Answer: 131 nM

Question: What about the EC50 (BxPC-3) of the same compound?
Answer: 251 nM

Question: And the EC50 (YAPC)?
Answer: 234 nM

Question: What about the EC50 (SW954; Homo sapiens, SW 954, 72 hours) of the same compound?
Answer: 324 nM

Question: What about the Phenotype (SW954; SMAD4 mutant) of the same compound?
Answer: sensitive (The cutoff for sensitivity is a median EC50 of less than the median value of all POC's recorded in the panel (<0.36))

Question: What about the EC50 (T84) of the same compound?
Answer: 556 nM

Question: And the EC50 (SW620)?
Answer: 387 nM

Question: And the EC50 (NCl-H520)?
Answer: 261 nM

Question: What about the EC50 (SW837) of the same compound?
Answer: 694 nM

Question: What about the EC50 (MIA-PaCa-2) of the same compound?
Answer: 239 nM

Question: And the EC50 (FADU)?
Answer: 261 nM

Question: What about the EC50 (HCT-15) of the same compound?
Answer: 836 nM

Question: And the EC50 (SKUT1)?
Answer: 85.6 nM

Question: What about the EC50 (ACHN) of the same compound?
Answer: 652 nM

Question: And the EC50 (HT29)?
Answer: 250 nM

Question: What about the EC50 (COLO-205) of the same compound?
Answer: 92.3 nM

Question: What about the EC50 (CAL-62) of the same compound?
Answer: 83.7 nM

Question: And the EC50 (CAPAN-1)?
Answer: 365 nM

Question: And the EC50 (647-V)?
Answer: 283 nM

Question: What about the EC50 (THP-1; Homo sapiens, 72 hours) of the same compound?
Answer: 148 nM

Question: And the Phenotype (THP-1; KDM6A mutant)?
Answer: sensitive (The cutoff for sensitivity is a median EC50 of less than the median value of all POC's recorded in the panel (<0.36))

Question: What about the EC50 (LS1034) of the same compound?
Answer: 3760 nM

Question: And the EC50 (SW 1116)?
Answer: 10000 nM

Question: What about the EC50 (NClH747) of the same compound?
Answer: 2070 nM
